{"source": "paper PMC9862186", "about": "(International Journal of Molecular Sciences, 2023)", "origin": "cited, not measured here", "system": "rats", "settings": "cited from earlier work"}
{"compound": "C=CCc1ccc(O)c(OC)c1", "note": "[Eugenol]", "values": [{"measurement": "oral LD50", "setting": "oral", "value": "about 2 g/kg"}, {"measurement": "intravenous doses inducing anesthetic effects without relevant side effects", "setting": "rat, in vivo, iv", "value": "up to 60 mg/kg"}]}
